Experimental data published in patent publication US20030161827A1, “Therapies that improve graft survival” (priority 2000, published 2003).

System: renal allograft
Experiment: Unilateral renal transplantation, mAb and sirolimus (Example 2)
Format: in vivo, monkey
Settings: n=4 per group; treatment until day 56, followed until day 119
Experimental: Unilateral renal transplantation was performed in 12 blood group matched and MLR mismatched animals. […] Sirolimus was administered by daily gavage at 1 mg/kg at day 0 to day 13 and then 0.5 mg/kg from day 13 to day 56. All animals were off immunosuppression after day 56 and were then followed until day 119.

CO[C@H]1C[C@@H]2CC[C@@H](C)[C@@](O)(O2)C(=O)C(=O)N2CCCC[C@H]2C(=O)O[C@H]([C@H](C)C[C@@H]2CC[C@@H](O)[C@H](OC)C2)CC(=O)[C@H](C)/C=C(\C)[C@@H](O)[C@@H](OC)C(=O)[C@H](C)C[C@H](C)/C=C/C=C/C=C/1C [sirolimus]
mean survival: 23 days
